Data reported in patent US20100130450A1, “Methods of Treating Fungal Infections” (NORTHEASTERN UNIVERSITY, priority 2007, published 2010).
Entries after “also recorded” stand apart in the source; their conditions may differ.

Legend:
[1] = test system: Candida albicans strain CAF4-2 biofilms; assay type: cell-based; settings: for inhibition of metabolic activity by the compound alone (XTT): any concentration tested
Procedure: Specifically, a screen was developed using C. albicans cells treated with miconazole at subinhibitory concentrations, to which candidate potentiator compounds were added. […] In order to make the screen compatible with high-throughput approaches, biofilms were grown in microtiter plates and the reduction of a vital dye XTT, commonly used to monitor yeast viability, was used as the quantitative readout.
Microtiter plate wells were seeded with wild type Candida albicans strain CAF4-2. Biofilms were grown for 48 hrs at 37° C., washed with PBS pH 7.4, and resuspended in a final volume of 100 μl RPMI containing 10 μg/ml miconazole. Individual compounds from ChemBridge DiverSet E (ChemBridge Corp., San Diego, Calif.) were then added at 10 μg/ml to the wells. Plates were incubated for 24 hrs and XTT (Sigma-X4751) was added at 1 mg/ml to each well. After 4 hrs of incubation at 37° C., reduction of XTT was monitored by recording the optical density at 690 nm (subtracted from OD450) with a microtiter plate reader. Hits were identified when XTT reduction was inhibited by more than 30% of the control values.
A checkerboard assay was then performed to examine possible synergy between miconazole and the hits. 100 μg/ml miconazole (2× dilution in each subsequent well, y-axis) and 100 μg/ml compound AC9 (2× dilution, x-axis) were added to mature 48 hr wild type C. albicans biofilms and incubated for an additional 24 hrs in the presence of the drugs. XTT was added to each well at 1 mg/ml and biofilms were incubated at 37° C. for an additional 4 hrs.
As described in Example 2, initially 5,000 compounds of the 16,000 from the ChemBridge library were screened for potentiators of miconazole action against C. albicans biofilms. A larger screen is conducted on the remaining 11,000 compounds from the ChemBridge library. Screening is performed as described in Example 2 using 96-well plates. Candida biofilms are formed by growing cells for 48 hrs at 37° C. in a shaking incubator in 96-well microtiter plates according to standard protocol (Ramage et al., Antimicrob. Agents Chemother. 45:2475-2479 (2001)). […] 10 μg/ml miconazole is added to each well and 10 μg/ml of unique compounds is added to rows 2-11 and the plates are incubated for 24 hrs at 37° C. XTT is then added to each well at 1 mg/ml and the plates are incubated for an additional 4 hrs at 37° C. The amount of XTT converted to dye is quantified with a plate reader by subtracting the optical density at 690 nm from the optical density at 450 nm. […] Positive hits are scored when the optical density of the experimental well is <0.7.

[2] = test system: Mature biofilms of wild type C. albicans; assay: Potentiation of biofilm killing by miconazole, CFU analysis; assay type: cell-based, Candida albicans; settings: for biofilm killing by the compound alone (CFU): alone: 100 μg/ml miconazole or 200 μg/ml hit compound
Procedure: Next, the same checkerboard assay was repeated to test the ability of the hit compounds to potentiate biofilm killing by miconazole. Mature biofilms of wild type C. albicans were challenged with 100 μg/ml miconazole, 200 μg/ml of the hit compound, or a combination of the two for 24 hrs. Biofilms were then washed, scraped, resuspended in PBS, vortexed for 30 seconds and plated for CFU analysis.

[3] = test system: Biofilms of C. albicans 3153A cells; assay: C. albicans biofilm killing by antifungals, CFU determination; assay type: cell-based, Candida albicans; settings: for shape of biofilm killing curve: dose-dependent
Procedure: Biofilms of C. albicans 3153A cells were cultured in wells of microtiter plates in RPMI medium for 48 hrs (Ramage et al., Antimicrob. Agents Chemother. 45:2475-2479 (2001)), washed twice in PBS pH 7.4 to remove nonadherent cells, and resuspended in 100 μl RPMI growth medium containing antifungals. After 24 hrs of antifungal challenge, the biofilms and cultures were washed twice, resuspended in 100 μl PBS, scraped, transferred into eppendorf tubes, vortexed and plated for colony forming unit (CFU) determination on YPD medium. […] In parallel, exponentially growing and stationary planktonic cultures were grown for 48 hrs in RPMI medium, and then antifungals were added for 24 hrs. The experiment was performed in triplicate and error bars indicate standard deviation (see FIG. 1).
Biofilms were grown in microtiter plates and were treated with amphotericin B or chlorhexidine (100 μg/ml) for 24 hrs, after which they were washed and vortexed, as discussed above. The cells were then reinoculated into microtiter plates to form new biofilms. The new biofilms, derived from persisters that survived drug treatment, were again treated with the antifungal agents (as discussed above), and the procedure was repeated a total of 3 times. Biofilms were sampled for CFU determination before and after antifungal treatment. The experiment was performed in triplicate.
Tests were also performed to determine if yeast persisters were multidrug tolerant. Mature, 48 hr biofilms of C. albicans were challenged for 24 hrs with 100 μg/ml amphotericin B, 100 μg/ml chlorhexidine, or a combination of these two antifungal agents, using the same procedures discussed above. Biofilms were washed and sampled for CFU determination before and after antifungal treatment, as discussed above.

[4] = test system: C. albicans 3153A planktonic cultures; assay: Killing of exponentially growing and stationary planktonic cultures, CFU; assay type: cell-based, Candida albicans; settings: antifungal added for 24 hrs
Procedure: (§1) Biofilms of C. albicans 3153A cells were cultured in wells of microtiter plates in RPMI medium for 48 hrs (Ramage et al., Antimicrob. Agents Chemother. 45:2475-2479 (2001)), washed twice in PBS pH 7.4 to remove nonadherent cells, and resuspended in 100 μl RPMI growth medium containing antifungals. After 24 hrs of antifungal challenge, the biofilms and cultures were washed twice, resuspended in 100 μl PBS, scraped, transferred into eppendorf tubes, vortexed and plated for colony forming unit (CFU) determination on YPD medium. […] This could lead to an underestimation of surviving cells by a factor of ≦10. In parallel, exponentially growing and stationary planktonic cultures were grown for 48 hrs in RPMI medium, and then antifungals were added for 24 hrs. The experiment was performed in triplicate and error bars indicate standard deviation (see FIG. 1).

[5] = test system: biofilm-deficient strains of C. albicans; assay: Persister formation by biofilm-deficient strains (survival to high levels of amphotericin B); assay type: cell-based, Candida albicans
Procedure: as §1
Given that persisters appeared only in the biofilm, their formation was dependent on the same genes/pathways that determine biofilm development. A large panel of biofilm-defective mutants was therefore tested for their ability to produce persisters by measuring survival to high levels of amphotericin B. These mutants were able to adhere to the surface of a microtiter plate, making it possible to assay in the biofilm survival protocol described above. Unexpectedly, all strains appeared to produce essentially normal levels of persisters (Table 1).

C. albicans = assay: MIC; assay type: cell-based, Candida albicans
[6] = mouse; cited from earlier work

## Oc1c(/N=N/c2ccccn2)ccc2ccccc12 [AC9]
[1]; AC9 at 10 μg/ml plus 10 μg/ml miconazole, negative control >1
  calculated OD value (OD450 minus OD690) of the positive control: 0.4
[1]
  inhibition of metabolic activity by the compound alone (XTT): Neither miconazole nor AC9 alone inhibited metabolic activity
[1]; in the presence of 12.5 μg/ml miconazole, 48 hr biofilm, 24 hrs
  lowest concentration with inhibition of metabolic activity (XTT checkerboard): 3.1 µg/mL
[1]; up to 100 μg/ml each, 2x dilutions
  synergy with miconazole (XTT checkerboard): clear synergy
[1]; with miconazole
  rank among the hits in the XTT reduction inhibition checkerboard assay: most active compound among the hits
[2]; 100 μg/ml miconazole + 200 μg/ml compound, 24 hrs
  biofilm killing in the presence of miconazole (CFU): Complete eradication; also recorded: completely eradicated
[2]; 24 hrs
  biofilm killing by the compound alone (CFU): Neither miconazole nor AC9 alone had any killing activity
[2]; with miconazole
  minimal concentration at which the compound potentiates complete killing of C. albicans by miconazole: 100 µg/mL

## CC[C@H](C)C[C@H](C)CCCCCCCCC(=O)N[C@H]1C[C@@H](O)[C@@H](NCCN)NC(=O)[C@@H]2[C@@H](O)CCN2C(=O)[C@H]([C@H](O)CCN)NC(=O)[C@H]([C@H](O)[C@@H](O)c2ccc(O)cc2)NC(=O)[C@@H]2C[C@@H](O)CN2C(=O)[C@H]([C@@H](C)O)NC1=O [Caspofungin, caspofungin]
[3]; 48 hr biofilm, 24 hrs antifungal challenge, CFU
  killing of biofilms: ≤ 10 fold

## [H]/N=C(\N/C(=N/[H])NCCCCCCNC(=N)NC(=N)Nc1ccc(Cl)cc1)Nc1ccc(Cl)cc1 [chlorhexidine]
[3]; 24 hrs challenge
  concentration at which killing of persisters was observed: above 100 μg/ml
  concentration at which the biofilm was completely sterilized: 1000 µg/mL
[3]; 24 hrs challenge, CFU
  shape of biofilm killing curve: biphasic killing
[4]
  killing of exponentially growing and stationary planktonic cells: eliminated

## C[C@@H]1[C@H](O)[C@@H](C)/C=C/C=C/C=C/C=C/C=C/C=C/C=C/[C@H](O[C@@H]2O[C@H](C)[C@@H](O)[C@H](N)[C@@H]2O)C[C@@H]2O[C@](O)(C[C@@H](O)C[C@@H](O)[C@H](O)CC[C@@H](O)C[C@@H](O)CC(=O)O[C@H]1C)C[C@H](O)[C@H]2C(=O)O [amphotericin B]
[3]; 24 hrs challenge, CFU
  shape of biofilm killing curve: biphasic killing
[3]; higher concentrations, 24 hrs challenge
  biofilm cells invulnerable to the drug (persisters): More than 1%
[4]
  killing of exponentially growing and stationary planktonic cells: effectively killed exponentially growing and stationary cells
[5]; strain 3153A
  Persisters: +++^1 (1-2% survival)
[5]; strain CAI4
  Persisters: +^3 (0.05-0.1% survival)
[5]; strain CJN698
  Persisters: ++ (0.1-1% survival)
[5]; strain CJN702
  Persisters: ++ (0.1-1% survival)
[5]; strain CKY136
  Persisters: +++ (1-2% survival)
[5]; strain CKY138
  Persisters: ++ (0.1-1% survival)
[5]; strain CKY357
  Persisters: ++^2 (0.1-1% survival)
[5]; strain DAY185
  Persisters: ++ (0.1-1% survival)
[5]; strain DAY286
  Persisters: ++ (0.1-1% survival)
[5]; strain GKO9
  Persisters: ++ (0.1-1% survival)
[5]; strain GKO443
  Persisters: ++ (0.1-1% survival)
[5]; strain GKO798
  Persisters: ++ (0.1-1% survival)
[5]; strain GKO814
  Persisters: ++ (0.1-1% survival)
[5]; strain MC191
  Persisters: +++ (1-2% survival)
[5]; strain MC195
  Persisters: + (0.05-0.1% survival)
[5]; strain MC245
  Persisters: ++ (0.1-1% survival)

## Clc1ccc(COC(Cn2ccnc2)c2ccc(Cl)cc2Cl)c(Cl)c1 (stereo not shown) [miconazole]
C. albicans
  MIC of logarithmically growing cells: 0.03 μg/ml
[1]
  inhibition of metabolic activity by the compound alone (XTT): Neither miconazole nor AC9 alone inhibited metabolic activity
[1]; miconazole alone at 10 μg/ml, 24 hrs
  XTT reduction by biofilm: indistinguishable from biofilms with no miconazole
[2]; 24 hrs
  biofilm killing by the compound alone (CFU): Neither miconazole nor AC9 alone had any killing activity
[6]
  LD50: 519 mg/kg
